Several values for one entry are separate records, joined by “and”; a condition that tells them apart may be missing. Equal entries are not always repeated. Where two headings read alike, the source gives them in different places.
What was measured:
[1] = system: E. coli; assay type: cell-based, Escherichia coli; conditions: 24 h contact time
Description: Escherichia coli ATCC 11229 (Culti-loops, Remel Europe, Dartford, Kent, UK) and Pseudomonas aeruginosa ATCC 15442 (Cuti-loops, Remel Europe, Dartford, Kent, UK) were selected as model Gram-negative organisms for the challenge testing of the antimicrobial coatings. Each bacterial strain was streaked for isolated colonies on Tryptic Soy Agar (TSA) plates (Difco, Becton Dickinson, Sparks, Md., U.S.A.) and incubated at 37° C. for 12 to 18 hours. Broth cultures were prepared by first picking 1-2 isolated colonies from TSA plates and inoculating 5 mL Tryptic Soy Broth (TSB; Difco, Becton Dickinson, Sparks, Md., U.S.A.) in a 16 mm test tube. This culture was grown in a shaking water bath at 150 RPM for 8 hours at 37° C. After the eight hours, 125 μL of this culture was added to 50 mL of TSB in a side-arm Klett flask and grown for approximately 8 hours in shaking water bath (150 RPM) at 37° C. The bacterial broths were grown to an A590 of 1.2-1.5, which correlated to approximately 10^9 CFU (colony forming units)/mL. 25 mL of this broth were transferred to a sterile 30 mL Oakridge tube and centrifuged at 12,000×g for 10 minutes at 4° C. (Sorval SS34 rotor) to pelletize the bacteria. The bacterial pellet was washed once and resuspended in 25 mL of phosphate buffer solution (PBS; BBL, FTA Hemaglutination Buffer, Becton Dickinson, Sparks, Md., U.S.A.). The suspension was diluted with PBS to achieve the target range of 10^5-10^6 CFU/mL and used to inoculate the slides containing antibacterial coatings.
Xylene/methanol (5:1 by weight) is used to dissolve the silver surfactants to facilitate homogeneously mixing with the alkyd resin composition.
A minus sign (−) denotes no growth, a plus sign (+) denotes confluent growth, and a capital P (P) denotes […].
Xylene/methanol (5:1 by weight) is used to dissolve the silver surfactants to facilitate homogeneously mixing with the acrylic resin composition.
The same laboratory experimental solvent based acrylic paint described in Example 34 is used to challenge E. coli by adding various levels of the invention silver anionic surfactants as described in Example 34.
A commercially available 2K epoxy resin paint is obtained from a local paint store (Sherwin Williams High Solids Epoxy Tile Clad HS; Part A B62WC11; Part B B60VZ75, The Sherwin Williams Company) and the same silver anionic surfactants described in Example 35 are used to prepare test coatings on microscope slides containing various levels of silver ion. These surfactants are dissolved in xylene/methanol (5:1 by weight) to facilitate their quantitative addition to the coating mixture.

[2] = system: Staphylococcus aureus ATCC 6538;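 note: bacterial suspension pipetted onto each coated surface, then recovered in PBS, serially diluted and spread on TSA plates to count viable colonies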
Description: The antimicrobial activities of the coatings on coupons and slides are tested against both Gram-positive (Staphylococcus aureus ATCC 6538) and Gram-negative (Escherichia coli ATCC 11229) bacteria. The following set of steps are executed over a four day period, in order to evaluate the coatings for antimicrobial activity.
(1) Three colonies are picked from a Petri dish that contains refrigerator stock of E. coli and S. aureus. Each of the colonies is placed into a separate test tube of 5 mL of TSB (tryptic soy broth); (2) the TSB cultures are incubated in a heated shaker; the culture is grown overnight at 37° C. while shaking at 175 rpm.
(1) 500 μL (0.5 mL) of FINAL E. coli bacteria are placed onto the center of each sterilized coating (24 hour); the same is done with S. aureus; (2) the coupons/coatings are stored for 24 hours in sealed pan by stacking Petri dishes on top of one another; (3) 200 mL of sterile water is added to the bottom of each pan; each pan is enclosed with clear saran wrap and aluminum foil; the Pyrex pans containing the coatings are incubated at room temperature for 24 hours; all inoculations of the coatings are performed in the same laminar flow hood as where the sterilized slides are placed into sterile Petri dishes; the prepared bacterial suspension (0.5 ml) is directly pipetted onto the coating of the slide; the spreading of the innoculum across the surface of the coating is observed and noted.
(1) 500 μL (0.5 mL) of FINAL E. coli bacteria is placed onto the center of each sterilized coating (0 hour); the same is done with S. aureus; (2) after bacteria are added to the 0 hour coatings, each Petri dish (containing the coating) is submerged with 25 mL of PBS; this immersion stops the viable bacteria from continuing to grow; (3) 100 μL of fluid is removed from coatings dish and placed in the middle of a previously labeled TSA plate; this is done to both agar plates labeled with −1 concentration; before removing the fluid, the surface of the coupon is scratched with a sterile loop to activate movement of bacteria; (4) “hockey sticks” are sterilized with ethanol and flame, to spread solution thoroughly; (5) the concentration of bacteria is diluted by removing 500 μL of the fluid in the coupon dish and placing it into a test tube with 4.5 mL of PBS; this solution is diluted in duplicate by removing 100 μL of the fluid and spreading into TSA plates labeled −2; (6) sterilized “hockey sticks” are used to spread solution thoroughly; (7) 500 μL of fluid from 1st tube prepared in step 5 is removed and placed into 4.5 mL of PBS; this dilution is mixed and 100 μL is removed in duplicate and placed into two new TSA plates labeled −3; (8) sterilized “hockey sticks” are used to spread these dilutions thoroughly; (9) steps 1-8 are repeated for each of the coupons or slides.

[3] = acetate sprayed with 0.06% w/w AgAOT/isopropanol, 0 h contact time
[4] = acetate sprayed with 0.06% w/w AgAOT/isopropanol, 24 h contact time
[5] = cotton sprayed with 0.06% w/w AgAOT/isopropanol, 0 h contact time
[6] = cotton sprayed with 0.06% w/w AgAOT/isopropanol, 24 h contact time
[7] = linen sprayed with 0.06% w/w AgAOT/isopropanol, 24 h contact time
[8] = metal plate sprayed with 0.06% Ag+ AgAOT solution, 24 h contact time
[9] = polyester sprayed with 0.06% w/w AgAOT/isopropanol, 0 h contact time
[10] = polyester sprayed with 0.06% w/w AgAOT/isopropanol, 24 h contact time
[11] = rayon sprayed with 0.06% w/w AgAOT/isopropanol, 24 h contact time
[12] = silk sprayed with 0.06% w/w AgAOT/isopropanol, 0 h contact time
[13] = silk sprayed with 0.24% w/w AgAOT/isopropanol, 24 h
[14] = vinyl tile sprayed with 0.06% Ag+ AgAOT solution, 24 h contact time
[15] = wall-paper sprayed with 0.06% Ag+ AgAOT solution, 24 h contact time

In the case of `CCCCC(CC)COC(=O)CC(C(=O)OCC(CC)CCCC)S(=O)(=O)[O-].[Ag+]` (centres unmarked) [AgAOT], the “E. coli growth on coating” value ([1]; alkyd resin paint, 0.0012 weight % Ag in coating) is reported as “+”, the “E. coli growth on coating” value ([1]; alkyd resin paint, 0.003 weight % Ag in coating) is reported as “+” and the “E. coli growth on coating” value ([1]; alkyd resin paint, 0.012 weight % Ag in coating) is reported as “−”. For the same compound, the “E. coli growth on coating” value ([1]; alkyd resin paint, 0.03 weight % Ag in coating) was “−”, the “E. coli growth on coating” value ([1]; alkyd resin paint, 0.06 weight % Ag in coating) was “−” and the “E. coli growth on coating” value ([1]; alkyd resin paint, 0.12 weight % Ag in coating) was “−”. For the same compound, the “Silver level effective at preventing any growth” value ([1]; alkyd resin paint) was 0.012 % w/w, the “Silver level partially effective” value ([1]; alkyd resin paint) was 0.006 % w/w and the “E. coli growth on coating” value ([1]; commercial 2K epoxy paint, 0.0012 weight % Ag in coating) was “+”. For the same compound, the “E. coli growth on coating” value ([1]; commercial 2K epoxy paint, 0.003 weight % Ag in coating) was “+”, the “E. coli growth on coating” value ([1]; commercial 2K epoxy paint, 0.006 weight % Ag in coating) was “+” and the “E. coli growth on coating” value ([1]; commercial 2K epoxy paint, 0.012 weight % Ag in coating) was “+”. The “E. coli growth on coating” value ([1]; commercial 2K epoxy paint, 0.03 weight % Ag in coating) was “+”, the “E. coli growth on coating” value ([1]; commercial 2K epoxy paint, 0.06 weight % Ag in coating) was “−” and the “E. coli growth on coating” value ([1]; commercial 2K epoxy paint, 0.12 weight % Ag in coating) was “−”. For the same compound, the “Silver level giving complete inhibition of growth” value ([1]; commercial 2K epoxy paint) was 0.06 % w/w, the “E. coli growth on coating” value ([1]; commercial solvent borne acrylate paint, 0.0012 weight % Ag in coating) was “+” and the “E. coli growth on coating” value ([1]; commercial solvent borne acrylate paint, 0.003 weight % Ag in coating) was “+”. For the same compound, the “E. coli growth on coating” value ([1]; commercial solvent borne acrylate paint, 0.006 weight % Ag in coating) was “+”, the “E. coli growth on coating” value ([1]; commercial solvent borne acrylate paint, 0.012 weight % Ag in coating) was “+” and the “E. coli growth on coating” value ([1]; commercial solvent borne acrylate paint, 0.06 weight % Ag in coating) was “−”. For the same compound, the “E. coli growth on coating” value ([1]; commercial solvent borne acrylate paint, 0.12 weight % Ag in coating) was “−”, the “Silver level partially effective” value ([1]; commercial solvent borne acrylic paint) was 0.03 % Ag w/w and the “E. coli growth on coating” value ([1]; laboratory solvent borne acrylate paint, 0.0012 weight % Ag in coating) was “+”. For the same compound, the “E. coli growth on coating” value ([1]; laboratory solvent borne acrylate paint, 0.003 weight % Ag in coating) was “+”, the “E. coli growth on coating” value ([1]; laboratory solvent borne acrylate paint, 0.006 weight % Ag in coating) was “+” and the “E. coli growth on coating” value ([1]; laboratory solvent borne acrylate paint, 0.012 weight % Ag in coating) was “+”. The “E. coli growth on coating” value ([1]; laboratory solvent borne acrylate paint, 0.03 weight % Ag in coating) was “+”, the “E. coli growth on coating” value ([1]; laboratory solvent borne acrylate paint, 0.06 weight % Ag in coating) was “−” and the “E. coli growth on coating” value ([1]; laboratory solvent borne acrylate paint, 0.12 weight % Ag in coating) was “−”. The “S. aureus CFU/mL, Average” value [2, 3] was 0.00E+00 CFU/mL, the “S. aureus CFU/mL, Run #1-#4” value [2, 3] was 0.00E+00 CFU/mL and the “S. aureus CFU/mL, Average” value [2, 4] was 0.00E+00 CFU/mL. The “S. aureus CFU/mL, Run #1-#4” value [2, 4] was 0.00E+00 CFU/mL, the “S. aureus CFU/mL, Average” value [2, 5] was 0.00E+00 CFU/mL and the “S. aureus CFU/mL, Run #1-#4” value [2, 5] was 0.00E+00 CFU/mL. The “S. aureus CFU/mL, Average” value [2, 6] was 0.00E+00 CFU/mL, the “S. aureus CFU/mL, Run #1-#4” value [2, 6] was 0.00E+00 CFU/mL and the “S. aureus CFU/mL, Average” value ([2]; linen sprayed with 0.06% w/w AgAOT/isopropanol, 0 h contact time) was 1.24E+04 CFU/mL. The “S. aureus CFU/mL, Average” value [2, 7] was 0.00E+00 CFU/mL, the “S. aureus CFU/mL, Run #1-#4” value [2, 7] was 0.00E+00 CFU/mL and the “S. aureus CFU/mL, Avg” value ([2]; metal plate sprayed with 0.06% Ag+ AgAOT solution, 0 h contact time) was 3.90E+04 CFU/mL. The “S. aureus CFU/mL, Avg” value [2, 8] was 0.00E+00 CFU/mL, the “S. aureus CFU/mL, Run #1-#2” value [2, 8] was 0.00E+00 CFU/mL and the “S. aureus on sprayed household surfaces” value ([2]; metal plate, wall paper, vinyl tile, 0.06% silver solution, 24 h contact time) was “Complete killing is obtained for each of the surfaces”. The “S. aureus CFU/mL, Average” value [2, 9] was 0.00E+00 CFU/mL, the “S. aureus CFU/mL, Run #1-#4” value [2, 9] was 0.00E+00 CFU/mL and the “S. aureus CFU/mL, Average” value [2, 10] was 0.00E+00 CFU/mL. The “S. aureus CFU/mL, Run #1-#4” value [2, 10] was 0.00E+00 CFU/mL, the “S. aureus CFU/mL, Average” value ([2]; rayon sprayed with 0.06% w/w AgAOT/isopropanol, 0 h contact time) was 1.88E+02 CFU/mL and the “S. aureus CFU/mL, Average” value [2, 11] was 0.00E+00 CFU/mL. The “S. aureus CFU/mL, Run #1-#4” value [2, 11] was 0.00E+00 CFU/mL, the “Inhibition of S. aureus growth” value ([2]; rayon, 0.06% Ag AgAOT/isopropanol, 0 h contact time) was 3 orders of magnitude and the “S. aureus CFU/mL, Average” value [2, 12] was 1.45E+05 CFU/mL. The “S. aureus CFU/mL, Run #1-#2” value [2, 12] was 1.80E+05 CFU/mL and 1.10E+05 CFU/mL, the “S. aureus CFU/mL, Average” value ([2]; silk sprayed with 0.06% w/w AgAOT/isopropanol, 24 h contact time) was 9.13E+03 CFU/mL and the “S. aureus CFU/mL, Average” value ([2]; silk sprayed with 0.24% w/w AgAOT/isopropanol, 0 h) was 1.35E+05 CFU/mL. For the same compound, the “S. aureus CFU/mL, Average” value [2, 13] was 0.00E+00 CFU/mL, the “S. aureus CFU/mL, Run #1-#4” value [2, 13] was 0.00E+00 CFU/mL and the “S. aureus CFU/mL, Avg” value ([2]; vinyl tile sprayed with 0.06% Ag+ AgAOT solution, 0 h contact time) was 1.25E+05 CFU/mL. The “S. aureus CFU/mL, Avg” value [2, 14] was 0.00E+00 CFU/mL, the “S. aureus CFU/mL, Run #1-#2” value [2, 14] was 0.00E+00 CFU/mL and the “S. aureus CFU/mL, Avg” value ([2]; wall-paper sprayed with 0.06% Ag+ AgAOT solution, 0 h contact time) was 9.75E+04 CFU/mL. For the same compound, the “S. aureus CFU/mL, Avg” value [2, 15] was 0.00E+00 CFU/mL and the “S. aureus CFU/mL, Run #1-#2” value [2, 15] was 0.00E+00 CFU/mL.

From patent publication US20090060984A1, “ANIONIC SURFACTANTS LETHAL TO GRAM-POSITIVE BACTERIA” (priority 2007, published 2009)
